{
  "source": "paper PMC2361459",
  "about": "“Safety, tolerability and pharmacokinetics of intravenous ghrelin for cancer-related anorexia/cachexia: a randomised, placebo-controlled, double-blind, double-crossover study” (British Journal of Cancer, 2008)",
  "key": {"[1]": {"test_system": "growth hormone (GH)", "assay": "Serum growth hormone (GH) response to i.v. ghrelin (IRMA)", "format": "in vivo, human", "procedure": "(§1) Normal saline was used as placebo.\n(§2) For ghrelin assays, 5 ml blood was collected in a precooled EDTA vacutainer tube containing aprotinin (33 kIU), placed immediately on ice, and centrifuged (4°C, 3000 G, 5 min). For each millilitre of plasma, 10 μl PMSF-Isopropanol, 50 μl 1N-HCL, and 50 μl aprotinin were added, and aliquots were stored at −80°C until batch analysis. Serum was collected and cooled for GH, insulin-like growth factor 1 (IGF-1), interleukin-6 (IL-6), and leptin analysis. Testosterone radioimmunoassays (Diagnostic Products Corporation; Bühlmann, Salzburg, Austria) were performed from serum sent to routine safety labs. The radioimmunoassay kits used for total and active ghrelin were from Linco Research (St Charles, MO, USA); for GH (active GH IRMA immunoradiometric assay) from Diagnostic Systems Laboratory (Webster, TX, USA); for IGF-1 (human, bovine) from Peninsula Laboratories (San Carlos, CA, USA); for IL-6 (Quantikine human ELISA) from R&D Systems (Minneapolis, MN, USA); and for leptin (human RIA) from Millipore (Billerica, MA, USA).\n(§3) All analyses were performed with SPSS (Version 11.5)."}, "[2]": {"test_system": "patients with advanced incurable cancer and anorexia/cachexia", "assay": "Autonomic function: standard deviation of beat-to-beat intervals (SDNN)", "format": "in vivo, human", "settings": "UD (n=9), ghrelin, P=NS", "procedure": "Autonomic dysfunction was assessed as described previously ([Strasser et al, 2006]). Standard deviation of beat-to-beat intervals (SDNN) was analysed at baseline and at end of study for 20 min in both the LD and UD; and in the UD, in addition, 30 min before infusion until after lunch on treatment days.\nas §3"}, "[3]": {"test_system": "insulin-like growth factor 1", "assay": "Serum insulin-like growth factor 1 (IGF-1) levels", "format": "in vivo, human", "procedure": "as §2, §3"}, "[4]": {"test_system": "cancer patients", "settings": "seven cancer patients; 5 pmol kg^−1 min^−1 for 180 min equals 3 μg kg^−1; no adverse effects; ref Neary et al, 2004; cited from earlier work", "source_text": "In melanoma-bearing nude mice, ghrelin plasma concentration increased with cachexia progression ([Hanada et al, 2004]). In cancer patients with cachexia (various cancers, n=21 ([Garcia et al, 2005]); breast and colorectal cancer, n=18 ([Wolf et al, 2006]); lung cancer, n=21 ([Shimizu et al, 2003])), ghrelin morning fasting levels were 1.3- to 1.5-fold higher than in those without cachexia and healthy controls. In contrast, ghrelin levels were normal in subgroups of patients in one study (39%) ([Wolf et al, 2006]) and all patients in another study (gastric and colorectal cancer, n=58) ([Huang e ..."}, "[5]": {"test_system": "patients with advanced incurable cancer and anorexia/cachexia", "settings": "in vivo"}, "[6]": {"settings": "stated in discussion, no reference given; cited from earlier work", "procedure": "Ghrelin levels were normal before infusion at 1030 hours. Renal function was not impaired. These unexpected findings of total, but not active, ghrelin remain unexplained at present but may indeed be without any physiological significance."}, "[7]": {"parameters": "species or system human", "settings": "in vivo", "procedure": "as §1, §2, §3"}, "[8]": {"test_system": "interleukin-6", "assay": "Plasma IL-6 levels (ELISA)", "format": "in vivo, human", "settings": "throughout the treatment period; results not shown", "procedure": "as §2"}, "[9]": {"test_system": "patients with advanced incurable cancer and anorexia/cachexia", "assay": "Radiological tumour measurements", "format": "in vivo, human"}, "[10]": {"test_system": "patients with advanced incurable cancer and anorexia/cachexia", "settings": "human, in vivo"}},
  "data": [
    {"smiles": "CCCCCCCC(=O)OC[C@H](NC(=O)[C@H](CO)NC(=O)CN)C(=O)N[C@@H](Cc1ccccc1)C(=O)N[C@@H](CC(C)C)C(=O)N[C@@H](CO)C(=O)N1CCC[C@H]1C(=O)N[C@@H](CCC(=O)O)C(=O)N[C@@H](Cc1cnc[nH]1)C(=O)N[C@@H](CCC(N)=O)C(=O)N[C@@H](CCCNC(=N)N)C(=O)N[C@H](C(=O)N[C@@H](CCC(N)=O)C(=O)N[C@@H](CCC(N)=O)C(=O)N[C@@H](CCCNC(=N)N)C(=O)N[C@@H](CCCCN)C(=O)N[C@@H](CCC(=O)O)C(=O)N[C@@H](CO)C(=O)N[C@@H](CCCCN)C(=O)N[C@@H](CCCCN)C(=O)N1CCC[C@H]1C(=O)N1CCC[C@H]1C(=O)N[C@@H](C)C(=O)N[C@@H](CCCCN)C(=O)N[C@@H](CC(C)C)C(=O)N[C@@H](CCC(N)=O)C(=O)N1CCC[C@H]1C(=O)N[C@@H](CCCNC(=N)N)C(=O)O)C(C)C", "note": "[ghrelin]", "values": [
      {"measurement": "mean difference of the peak GH levels (of week 1 and week 2) compared to baseline", "setting": "[1]; LD, 10 pmol kg^−1 min^−1 (about 2 μg kg^−1) i.v., SD 6, P=0.004 vs UD", "value": 28, "unit": "ng/mL"},
      {"measurement": "mean difference of the peak GH levels (of week 1 and week 2) compared to baseline", "setting": "[1]; UD, 40 pmol kg^−1 min^−1 (about 8 μg kg^−1) i.v., SD 20, P=0.004 vs LD", "value": 50, "unit": "ng/mL"},
      {"measurement": "peak increase of GH", "setting": "[1]; upper-dose ghrelin 8 μg kg^−1 i.v. over 60 min, cancer patients", "value": 42, "unit": "ng/mL"},
      {"measurement": "mean SDNN", "setting": "[2]; week 1, placebo 78±35", "value": "84 ± 40", "unit": "ms"},
      {"measurement": "mean SDNN", "setting": "[2]; week 2, placebo 80±27", "value": "75 ± 35", "unit": "ms"},
      {"measurement": "mean IGF-1 at day 17/18", "setting": "[3]; LD (n=7), ±994", "value": 1359, "unit": "pg per 100 μl"},
      {"measurement": "mean IGF-1 at day 17/18", "setting": "[3]; UD (n=9), ±495", "value": 1096, "unit": "pg per 100 μl"},
      {"measurement": "insulin-like growth factor 1 levels", "setting": "[3]; both dose groups, over the study", "value": "did not change"},
      {"measurement": "energy intake with i.v. ghrelin, higher than with placebo", "setting": "[4]", "value": 31, "unit": "%"},
      {"measurement": "abdominal pain, between infusion days (drug-related adverse events, grade 1 or 2)", "setting": "[5]", "value": 2},
      {"measurement": "abdominal pain, during infusion on treatment days (drug-related adverse events, grade 1 or 2)", "setting": "[5]", "value": 3},
      {"measurement": "abnormal liver tests or low potassium, possibly or probably related adverse events", "setting": "[5]", "value": "three"},
      {"measurement": "asthenia, during infusion on treatment days (drug-related adverse events, grade 1 or 2)", "setting": "[5]", "value": 1},
      {"measurement": "body temperature and oxygen saturation during and after the infusion", "setting": "[5]", "value": "remained unchanged"},
      {"measurement": "diarrhea, between infusion days (drug-related adverse events, grade 1 or 2)", "setting": "[5]", "value": 1},
      {"measurement": "dry mouth, during infusion on treatment days (drug-related adverse events, grade 1 or 2)", "setting": "[5]", "value": 3},
      {"measurement": "increased CRP, possibly or probably related adverse events", "setting": "[5]", "value": "two"},
      {"measurement": "nausea, between infusion days (drug-related adverse events, grade 1 or 2)", "setting": "[5]", "value": 1},
      {"measurement": "shortness of breath (overeaten, aspiration), during infusion on treatment days (drug-related adverse events, grade 1 or 2)", "setting": "[5]", "value": 1},
      {"measurement": "sweating, during infusion on treatment days (drug-related adverse events, grade 1 or 2)", "setting": "[5]", "value": 2},
      {"measurement": "vomiting, between infusion days (drug-related adverse events, grade 1 or 2)", "setting": "[5]", "value": 1},
      {"measurement": "worsening of pre-existing neuropathy, during infusion on treatment days (drug-related adverse events, grade 1 or 2)", "setting": "[5]", "value": 1},
      {"measurement": "half-life", "setting": "[6]", "value": "approximately 15 min"},
      {"measurement": "morning fasting total ghrelin levels 3 days after the prior ghrelin infusion compared to after placebo", "setting": "[7]", "value": "elevated"},
      {"measurement": "plasma levels of IL-6", "setting": "[8]", "value": "did not change"},
      {"measurement": "patients with progressive disease (PD) during the study period", "setting": "[9]; both dose groups, crossover ghrelin/placebo", "value": "two"},
      {"measurement": "tumour-growth dynamics", "setting": "[9]; short intervals of tumour measurements", "value": "no major unexpected tumour-growth dynamics"},
      {"measurement": "mean scores for tolerability of the study medication immediately after infusion and after lunch", "setting": "[10]", "value": "did not differ between ghrelin and placebo"}
    ]}
  ]
}
